These are literature values, as cited in EP1782809A1, “Use of ligands of PPARGamma for inducing foetal lung maturity and the prevention of the respiratory-distress syndrome in premature infants” (Charité-Universitätsmedizin Berlin, priority 2005, dated 2007).

Read-outs that look alike come from different tables or passages of the source.

Experiment in data set [1]: not given
The source holds these as a separate data set.

The conditions of data set [2]: rabbits; 20 or 75-fold of the maximal recommended human dosage.

For the compound `CCc1ccc(CCOc2ccc(CC3SC(=O)NC3=O)cc2)nc1` (stereo not shown) [pioglitazone], the “incidence of elevated transaminases” value (human, in vivo) is listed as “similar”.
As for `CN(CCOc1ccc(CC2SC(=O)NC2=O)cc1)c1ccccn1` (stereo not shown) [rosiglitazone], in data set [1] (late pregnancy, at this dose (20 or 75-fold of human dosage), species not stated in the sentence (rats or rabbits) [26]), the foetal growth entry is “can slow down the foetal growth”. Moreover, in data set [1] (rats), the “effect on the implantation or embryogenesis” value is listed as “no effect”. Moreover, the teratogenic effect result is given as “no teratogenic effect” in data set [1] (rats, 20 or 75-fold of the maximal recommended human dosage) and “no teratogenic effect” in data set [2]. Further, the “incidence of elevated transaminases” value (controlled clinical studies, compared to the placebo group [19]) was “similar”.
With `Cc1c(C)c2c(c(C)c1O)CCC(C)(COc1ccc(CC3SC(=O)NC3=O)cc1)O2` (stereo not shown) [troglitazone], the “incidence of elevated transaminases” value (human, in vivo) is “triplicated”.
